Paper PMC10838953

How the values were obtained:
YANK1 = YANK1 (Homo sapiens, UniProt Q8WU08); assay: biochemical; settings: read-out: %Ctrl @ 2000nM
EGFR(G719C) = EGFR(G719C) (Homo sapiens, UniProt P00533, G719C); assay: biochemical; settings: read-out: %Ctrl @ 2000nM
FES = FES (Homo sapiens, UniProt P07332); assay: biochemical; settings: read-out: %Ctrl @ 2000nM
CSNK1A1 = CSNK1A1 (Homo sapiens, UniProt P48729); assay: biochemical; settings: read-out: %Ctrl @ 2000nM
TTK = TTK (Homo sapiens, UniProt P33981); assay: biochemical; settings: read-out: %Ctrl @ 2000nM
MYLK = MYLK (Homo sapiens, UniProt Q15746); assay: biochemical; settings: read-out: %Ctrl @ 2000nM
MYLK, sequence (Q15746 whole entry): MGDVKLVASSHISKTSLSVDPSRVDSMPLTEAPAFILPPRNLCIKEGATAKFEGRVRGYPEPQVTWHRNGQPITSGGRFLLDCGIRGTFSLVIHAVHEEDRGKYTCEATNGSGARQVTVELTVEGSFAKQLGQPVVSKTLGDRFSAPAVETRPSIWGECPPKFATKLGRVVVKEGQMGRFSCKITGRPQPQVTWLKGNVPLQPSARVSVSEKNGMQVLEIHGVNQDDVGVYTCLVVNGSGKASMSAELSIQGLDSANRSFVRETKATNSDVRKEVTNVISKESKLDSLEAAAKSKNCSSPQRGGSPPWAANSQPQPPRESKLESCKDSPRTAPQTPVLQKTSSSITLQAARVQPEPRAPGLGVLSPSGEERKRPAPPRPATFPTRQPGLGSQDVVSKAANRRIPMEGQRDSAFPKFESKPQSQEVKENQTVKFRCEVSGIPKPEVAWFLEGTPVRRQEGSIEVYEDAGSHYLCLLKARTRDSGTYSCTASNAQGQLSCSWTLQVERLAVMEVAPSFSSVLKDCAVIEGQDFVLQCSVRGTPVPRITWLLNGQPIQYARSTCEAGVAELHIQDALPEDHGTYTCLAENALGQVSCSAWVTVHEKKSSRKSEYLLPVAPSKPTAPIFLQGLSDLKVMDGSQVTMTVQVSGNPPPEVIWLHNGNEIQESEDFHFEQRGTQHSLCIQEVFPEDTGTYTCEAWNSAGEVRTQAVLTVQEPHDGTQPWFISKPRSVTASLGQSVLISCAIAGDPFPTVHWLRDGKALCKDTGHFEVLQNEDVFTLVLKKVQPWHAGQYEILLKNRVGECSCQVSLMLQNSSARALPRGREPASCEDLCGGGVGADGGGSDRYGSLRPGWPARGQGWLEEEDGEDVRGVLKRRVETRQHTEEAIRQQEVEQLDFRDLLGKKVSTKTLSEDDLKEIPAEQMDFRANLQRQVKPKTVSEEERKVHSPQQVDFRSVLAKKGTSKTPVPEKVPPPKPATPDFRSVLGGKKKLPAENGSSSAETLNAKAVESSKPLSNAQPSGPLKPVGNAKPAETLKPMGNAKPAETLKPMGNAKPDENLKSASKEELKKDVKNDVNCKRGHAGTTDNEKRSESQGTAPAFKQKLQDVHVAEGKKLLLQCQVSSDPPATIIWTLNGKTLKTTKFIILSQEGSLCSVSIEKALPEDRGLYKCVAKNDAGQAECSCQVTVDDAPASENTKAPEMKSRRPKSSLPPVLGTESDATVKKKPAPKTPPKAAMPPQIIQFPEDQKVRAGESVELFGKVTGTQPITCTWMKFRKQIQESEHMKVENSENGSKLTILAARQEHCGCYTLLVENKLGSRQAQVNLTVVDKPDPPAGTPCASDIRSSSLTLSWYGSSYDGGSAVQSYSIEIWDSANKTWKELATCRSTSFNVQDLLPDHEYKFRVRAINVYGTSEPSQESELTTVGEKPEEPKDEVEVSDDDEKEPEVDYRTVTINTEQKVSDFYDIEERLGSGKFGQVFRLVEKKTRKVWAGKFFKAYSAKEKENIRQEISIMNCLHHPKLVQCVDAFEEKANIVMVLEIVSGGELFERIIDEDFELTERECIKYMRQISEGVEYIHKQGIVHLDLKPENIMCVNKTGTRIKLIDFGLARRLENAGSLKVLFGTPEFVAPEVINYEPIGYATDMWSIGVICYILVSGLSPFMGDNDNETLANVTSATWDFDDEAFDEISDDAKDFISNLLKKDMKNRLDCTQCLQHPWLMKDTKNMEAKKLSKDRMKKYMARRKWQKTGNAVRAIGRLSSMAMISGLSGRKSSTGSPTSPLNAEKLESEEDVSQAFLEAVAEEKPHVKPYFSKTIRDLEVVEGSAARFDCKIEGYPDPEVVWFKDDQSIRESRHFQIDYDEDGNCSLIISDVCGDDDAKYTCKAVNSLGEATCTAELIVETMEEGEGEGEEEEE

[1] = molecular target: RPS6KA4(Kin.Dom.1-N-terminal) (Homo sapiens, UniProt O75676); assay: biochemical; settings: read-out: %Ctrl @ 2000nM
EGFR = EGFR (Homo sapiens, UniProt P00533); assay: biochemical; settings: read-out: %Ctrl @ 2000nM
EGFR, sequence (P00533 25-1210): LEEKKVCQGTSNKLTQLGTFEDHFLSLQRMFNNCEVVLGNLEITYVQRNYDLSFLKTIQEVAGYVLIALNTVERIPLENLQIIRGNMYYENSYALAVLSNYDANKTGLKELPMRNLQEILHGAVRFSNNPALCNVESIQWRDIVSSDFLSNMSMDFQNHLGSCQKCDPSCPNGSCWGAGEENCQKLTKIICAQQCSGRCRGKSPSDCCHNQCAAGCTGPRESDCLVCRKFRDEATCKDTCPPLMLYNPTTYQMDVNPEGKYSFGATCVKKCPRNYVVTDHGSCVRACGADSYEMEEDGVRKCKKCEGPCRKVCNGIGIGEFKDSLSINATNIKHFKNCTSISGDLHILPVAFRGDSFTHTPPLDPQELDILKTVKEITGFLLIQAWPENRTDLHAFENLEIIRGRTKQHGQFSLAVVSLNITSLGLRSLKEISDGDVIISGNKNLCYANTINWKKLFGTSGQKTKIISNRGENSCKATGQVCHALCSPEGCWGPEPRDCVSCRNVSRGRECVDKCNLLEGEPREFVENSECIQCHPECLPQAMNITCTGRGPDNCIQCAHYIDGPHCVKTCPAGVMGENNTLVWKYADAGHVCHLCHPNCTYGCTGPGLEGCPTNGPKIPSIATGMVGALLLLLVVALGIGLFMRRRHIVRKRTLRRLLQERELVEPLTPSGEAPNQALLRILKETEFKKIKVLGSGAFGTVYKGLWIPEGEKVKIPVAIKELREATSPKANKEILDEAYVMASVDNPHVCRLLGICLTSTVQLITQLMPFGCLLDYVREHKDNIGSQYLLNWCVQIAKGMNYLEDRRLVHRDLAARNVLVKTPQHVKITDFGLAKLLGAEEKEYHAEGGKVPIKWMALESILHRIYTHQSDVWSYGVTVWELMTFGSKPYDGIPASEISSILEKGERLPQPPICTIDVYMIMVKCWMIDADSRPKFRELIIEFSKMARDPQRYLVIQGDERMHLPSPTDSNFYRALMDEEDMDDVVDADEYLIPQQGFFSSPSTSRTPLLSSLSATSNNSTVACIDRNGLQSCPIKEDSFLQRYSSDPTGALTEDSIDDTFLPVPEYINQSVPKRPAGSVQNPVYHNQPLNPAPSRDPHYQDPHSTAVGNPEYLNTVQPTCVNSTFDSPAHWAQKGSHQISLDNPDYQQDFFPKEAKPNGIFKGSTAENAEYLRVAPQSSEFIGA

[2] = molecular target: ABL1(Q252H)-phosphorylated (Homo sapiens, UniProt P00519, Q252H); assay: biochemical; settings: read-out: %Ctrl @ 2000nM
[3] = molecular target: RSK2(Kin.Dom.1-N-terminal) (Homo sapiens, UniProt P51812); assay: biochemical; settings: read-out: %Ctrl @ 2000nM
NIK = NIK (Homo sapiens, UniProt Q99558); assay: biochemical; settings: read-out: %Ctrl @ 2000nM
NIK, sequence (Q99558 whole entry): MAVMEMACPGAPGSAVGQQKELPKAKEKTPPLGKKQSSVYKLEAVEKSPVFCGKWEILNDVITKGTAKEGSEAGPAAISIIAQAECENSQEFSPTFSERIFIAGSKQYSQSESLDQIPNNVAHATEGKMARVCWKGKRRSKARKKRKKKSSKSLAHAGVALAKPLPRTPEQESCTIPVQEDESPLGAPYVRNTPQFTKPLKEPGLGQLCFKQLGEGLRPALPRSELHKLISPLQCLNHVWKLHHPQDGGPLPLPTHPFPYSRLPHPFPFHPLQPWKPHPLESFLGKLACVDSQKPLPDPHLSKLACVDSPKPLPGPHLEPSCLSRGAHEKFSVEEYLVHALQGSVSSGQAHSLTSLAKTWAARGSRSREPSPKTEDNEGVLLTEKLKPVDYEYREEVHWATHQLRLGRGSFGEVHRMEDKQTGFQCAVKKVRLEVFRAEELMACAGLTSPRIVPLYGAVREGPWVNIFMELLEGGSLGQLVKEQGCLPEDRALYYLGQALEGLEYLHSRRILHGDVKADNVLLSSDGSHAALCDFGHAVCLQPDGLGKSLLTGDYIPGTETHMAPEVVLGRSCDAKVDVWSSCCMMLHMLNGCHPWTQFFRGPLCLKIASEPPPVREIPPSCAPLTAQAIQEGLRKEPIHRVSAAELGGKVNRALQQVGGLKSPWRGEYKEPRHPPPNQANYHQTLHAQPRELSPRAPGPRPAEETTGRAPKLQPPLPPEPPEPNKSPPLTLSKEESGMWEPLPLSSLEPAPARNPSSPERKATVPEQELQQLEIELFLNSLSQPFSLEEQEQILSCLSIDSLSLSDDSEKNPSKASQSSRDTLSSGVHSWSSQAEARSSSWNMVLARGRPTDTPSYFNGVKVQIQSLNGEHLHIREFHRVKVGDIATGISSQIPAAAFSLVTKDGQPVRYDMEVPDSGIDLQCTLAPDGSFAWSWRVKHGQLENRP

PKAC-alpha = PKAC-alpha (Homo sapiens, UniProt P17612); assay: biochemical; settings: read-out: %Ctrl @ 2000nM
CSNK2A2 (CK2α′) = CSNK2A2 (CK2α′) (Homo sapiens, UniProt P19784); assay: biochemical
CSNK2A2 (CK2α′), sequence (P19784 whole entry): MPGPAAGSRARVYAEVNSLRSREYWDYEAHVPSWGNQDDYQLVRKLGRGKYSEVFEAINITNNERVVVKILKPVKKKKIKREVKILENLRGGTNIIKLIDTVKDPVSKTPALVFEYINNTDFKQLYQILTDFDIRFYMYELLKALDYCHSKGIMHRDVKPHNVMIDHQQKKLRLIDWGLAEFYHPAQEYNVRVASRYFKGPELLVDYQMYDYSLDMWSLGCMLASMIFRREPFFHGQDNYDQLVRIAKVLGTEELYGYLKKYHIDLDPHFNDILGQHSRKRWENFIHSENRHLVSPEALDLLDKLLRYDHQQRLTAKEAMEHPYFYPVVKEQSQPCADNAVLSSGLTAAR

BIKE = BIKE (Homo sapiens, UniProt Q9NSY1); assay: biochemical; settings: read-out: %Ctrl @ 2000nM
PIP5K1C = PIP5K1C (Homo sapiens, UniProt O60331); assay: biochemical; settings: read-out: %Ctrl @ 2000nM
EPHA2 = EPHA2 (Homo sapiens, UniProt P29317); assay: biochemical; settings: read-out: %Ctrl @ 2000nM
BRAF = BRAF (Homo sapiens, UniProt P15056); assay: biochemical; settings: read-out: %Ctrl @ 2000nM
CDK8 = CDK8 (Homo sapiens, UniProt P49336); assay: biochemical; settings: read-out: %Ctrl @ 2000nM
[4] = molecular target: ABL1(F317I)-nonphosphorylated (Homo sapiens, UniProt P00519, F317I); assay: biochemical; settings: read-out: %Ctrl @ 2000nM
[5] = molecular target: RPS6KA5(Kin.Dom.1-N-terminal) (Homo sapiens, UniProt O75582); assay: biochemical; settings: read-out: %Ctrl @ 2000nM
DCAMKL3 = DCAMKL3 (Homo sapiens, UniProt Q9C098); assay: biochemical; settings: read-out: %Ctrl @ 2000nM
PIP5K2C = PIP5K2C (Homo sapiens, UniProt Q8TBX8); assay: biochemical; settings: read-out: %Ctrl @ 2000nM
STK36 = STK36 (Homo sapiens, UniProt Q9NRP7); assay: biochemical; settings: read-out: %Ctrl @ 2000nM
MEK1 = MEK1 (Homo sapiens, UniProt Q02750); assay: biochemical; settings: read-out: %Ctrl @ 2000nM
BRK = BRK (Homo sapiens, UniProt Q13882); assay: biochemical; settings: read-out: %Ctrl @ 2000nM
BRK, sequence (Q13882 whole entry): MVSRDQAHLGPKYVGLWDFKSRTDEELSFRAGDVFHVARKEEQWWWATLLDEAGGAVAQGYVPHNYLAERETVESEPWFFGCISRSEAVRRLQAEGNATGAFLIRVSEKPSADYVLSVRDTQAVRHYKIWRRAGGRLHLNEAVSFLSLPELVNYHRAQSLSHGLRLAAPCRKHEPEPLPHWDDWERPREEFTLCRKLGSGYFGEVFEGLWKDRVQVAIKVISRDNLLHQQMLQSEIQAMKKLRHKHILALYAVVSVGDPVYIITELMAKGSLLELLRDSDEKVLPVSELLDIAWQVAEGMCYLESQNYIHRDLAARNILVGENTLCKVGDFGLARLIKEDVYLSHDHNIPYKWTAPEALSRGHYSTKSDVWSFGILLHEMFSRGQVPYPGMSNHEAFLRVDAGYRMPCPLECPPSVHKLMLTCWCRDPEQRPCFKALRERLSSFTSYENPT

GSK3A = GSK3A (Homo sapiens, UniProt P49840); assay: biochemical; settings: read-out: %Ctrl @ 2000nM
EPHB3 = EPHB3 (Homo sapiens, UniProt P54753); assay: biochemical; settings: read-out: %Ctrl @ 2000nM
SGK2 = SGK2 (Homo sapiens, UniProt Q9HBY8); assay: biochemical; settings: read-out: %Ctrl @ 2000nM
INSR = INSR (Homo sapiens, UniProt P06213); assay: biochemical; settings: read-out: %Ctrl @ 2000nM
SIK = SIK (Homo sapiens, UniProt P57059); assay: biochemical; settings: read-out: %Ctrl @ 2000nM
SNRK = SNRK (Homo sapiens, UniProt Q9NRH2); assay: biochemical; settings: read-out: %Ctrl @ 2000nM
NEK3 = NEK3 (Homo sapiens, UniProt P51956); assay: biochemical; settings: read-out: %Ctrl @ 2000nM
NDR1 = NDR1 (Homo sapiens, UniProt Q15208); assay: biochemical; settings: read-out: %Ctrl @ 2000nM
CAMKK1 = CAMKK1 (Homo sapiens, UniProt Q8N5S9); assay: biochemical; settings: read-out: %Ctrl @ 2000nM
PRKCD = PRKCD (Homo sapiens, UniProt Q05655); assay: biochemical; settings: read-out: %Ctrl @ 2000nM
RIPK4 = RIPK4 (Homo sapiens, UniProt P57078); assay: biochemical; settings: read-out: %Ctrl @ 2000nM
TLK1 = TLK1 (Homo sapiens, UniProt Q9UKI8); assay: biochemical; settings: read-out: %Ctrl @ 2000nM
PIK3CA(E542K) = PIK3CA(E542K) (Homo sapiens, UniProt P42336, E542K); assay: biochemical; settings: read-out: %Ctrl @ 2000nM
TNK2 = TNK2 (Homo sapiens, UniProt Q07912); assay: biochemical; settings: read-out: %Ctrl @ 2000nM
PHKG1 = PHKG1 (Homo sapiens, UniProt Q16816); assay: biochemical; settings: read-out: %Ctrl @ 2000nM
CDK4 = CDK4 (Homo sapiens, UniProt P11802); assay: biochemical; settings: read-out: %Ctrl @ 2000nM

With `CC(C)COC(=O)c1[nH]c2ccc(F)cc2c1-c1cn(CC2CCN(CCNS(=O)(=O)c3ccc(CC(C)C)cc3)CC2)nn1` [AB668, isobutyl 5-fluoro-3-(1-((1-(2-((4-isobutylphenyl)sulfonamido)ethyl)piperidin-4-yl)methyl)-1H-1,2,3-triazol-4-yl)-1H-indole-2-carboxylate] the remaining activity at 2 µM (YANK1) was 78%, the remaining activity at 2 µM (EGFR(G719C)) was 83% and the remaining activity at 2 µM (FES) was 91%. The “CK2 inhibition 8 h after inhibitor removal” value (CK2 in 786-O cells) was “persisted”, the remaining activity at 2 µM (CSNK1A1) was 96% and the remaining activity at 2 µM (TTK) was 85%. The remaining activity at 2 µM (MYLK) was 81%, the remaining activity at 2 µM [1] was 88% and the remaining activity at 2 µM (EGFR) was 92%. The remaining activity at 2 µM [2] was 86%, the remaining activity at 2 µM [3] was 61% and the remaining activity at 2 µM (NIK) was 72%. The remaining activity at 2 µM (PKAC-alpha) was 84%, the remaining activity at 2 µM (CSNK2A2 (CK2α′); read-out: %Ctrl @ 2000nM) was 19% and the inhibition at 2 µM (CSNK2A2 (CK2α′); read-out: inhibition (KINOMEscan profiling)) was 81%. The remaining activity at 2 µM (BIKE) was 99%, the remaining activity at 2 µM (PIP5K1C) was 87% and the remaining activity at 2 µM (EPHA2) was 92%. For the same molecule, the remaining activity at 2 µM (BRAF) was 100%, the remaining activity at 2 µM (CDK8) was 81% and the remaining activity at 2 µM [4] was 79%. For the same molecule, the remaining activity at 2 µM [5] was 95%, the remaining activity at 2 µM (DCAMKL3) was 91% and the remaining activity at 2 µM (PIP5K2C) was 81%. It also gave a remaining activity at 2 µM (STK36) of 100%, a remaining activity at 2 µM (MEK1) of 97% and a remaining activity at 2 µM (BRK) of 72%. For the same molecule, the remaining activity at 2 µM (GSK3A) was 84%, the remaining activity at 2 µM (EPHB3) was 80% and the remaining activity at 2 µM (SGK2) was 98%. The remaining activity at 2 µM (INSR) was 97%, the remaining activity at 2 µM (SIK) was 97% and the remaining activity at 2 µM (SNRK) was 100%. It also gave a remaining activity at 2 µM (NEK3) of 71%, a remaining activity at 2 µM (NDR1) of 93% and a remaining activity at 2 µM (CAMKK1) of 88%. For the same molecule, the remaining activity at 2 µM (PRKCD) was 91%, the remaining activity at 2 µM (RIPK4) was 100% and the remaining activity at 2 µM (TLK1) was 100%. It also gave a remaining activity at 2 µM (PIK3CA(E542K)) of 99%, a remaining activity at 2 µM (TNK2) of 100% and a remaining activity at 2 µM (PHKG1) of 76%. For the same molecule, the remaining activity at 2 µM (CDK4) was 100%.
